Measured values as given in PubChem BioAssay AID1963873 (Molecular Pharmacology Branch, DTP, NCI, 2024).
pIC50: −log10 of the molar value.

System: 276233-004-R-J1-PDC KRAS spheroids with HUVEC/MSC, viability
Assay: Anticancer human tumor 276233-004-R-J1-PDC patient-derived colon adenocarcinoma cell line growth inhibition [KRAS2]
Conditions: for viability, T/C: stronger effect = lower value; active = viability on the fitted dose curve at most 10% of control; inactive = the rest
From the text: Multicellular complex tumor spheroid response to RAS pathway inhibitors in combination with a targeted agents in patient-derived cell lines with oncogenic KRAS variants from multiple cancer types
A high-throughput screen of multi-cell type tumor spheroids was designed to identify active combinations of targeted small molecules and KRAS pathway inhibitors. Complex spheroids include a stromal component modeled by human endothelial cells (HUVEC) and fibroblasts modeled by human mesenchymal stem cells (MSCs). The concentration ranges selected for each drug and investigational agent were based upon clinically achievable concentrations if the clinical Cmax of the agent was known.
Compounds. The drugs and investigational agents: BI-3406 (NSC825286), BAY-293 (NSC824723), batoprotafib (TNO155; NSC825523), sotorasib (AMG 510; NSC818433), MRTX1257 (NSC819558), elimusertib (BAY 1895344; NSC800525), molibresib (GSK525762; NSC774829), temuterkib (LY3214996; NSC803410), venetoclax (NSC766270), alisertib (NSC759677), olaparib (NSC753686), talazoparib (NSC767125), erdafitinib (NSC781556), ipatasertib (NSC767898), cabozantinib (NSC761068), nintedanib (NSC756659), abemaciclib (NSC768073), docetaxel (NSC628503), trametinib (NSC758246), and sapanisertib (NSC764658) were obtained from the National Cancer Institute (NCI) Developmental Therapeutics Program Chemical Repository. The FDA-approved anticancer drug set is available from the Developmental Therapeutics Program. […] The stock solutions were prepared in dimethyl sulfoxide (DMSO, Sigma-Aldrich, St. Louis, MO, cat. D2650) at 800-fold the tested concentration and stored at -70 degrees C prior to their use. All drugs and investigational agents were tested over a range starting from a high concentration at or near the clinical Cmax and decreasing in half-log increments. If the clinical Cmax for an agent had not been determined, the highest concentration tested was 10 microM.
Cell Culture. All cells were maintained in an incubator at 37 degrees C and 5% CO2 with 95% humidity. The PDC lines were cultured according to standard operating procedures established by the NCI PDMR (https://pdmr.cancer.gov/sops/default.htm). Briefly, all PDCs were thawed and cultured in Matrigel-coated flasks prepared with a working solution of 1X Ham's F-12 nutrient mix, without supplementation (Invitrogen, Waltham, MA, cat. 11765054), 100 U/mL penicillin-streptomycin (Invitrogen, cat. 15140122), and 2.5% Matrigel (Corning Inc., Corning, NY, cat. 354248) for the first three passages. All PDCs were cultured in complete DMEM/F-12 media containing advanced DMEM/F-12 (Invitrogen, cat. 12634028), 4.9% defined fetal bovine serum, heat inactivated (HyClone Laboratories Inc., Logan, UT, cat. SH30070.03HI), 389 ng/mL hydrocortisone (Sigma-Aldrich, cat. H4001), 9.7 ng/mL human EGF recombinant protein (Invitrogen, cat. PHG0313), 23.4 microg/mL adenine (Sigma-Aldrich, cat. A2786), 97.3 U/mL penicillin-streptomycin (Invitrogen, cat. 15140122), 1.9 mM L-glutamine (Invitrogen, cat. 25030081), and 9.7 microM Y-27632 dihydrochloride (Tocris Bioscience, Bristol, United Kingdom, cat. 1254). The PDCs were cultured in complete DMEM/F12 media without 9.7 microM Y-27632 dihydrochloride for at least two passages prior to the screen. The established cell line HOP-62 was cultured in RPMI 1640 medium, HEPES (Invitrogen, cat. 22400105) with 10% defined fetal bovine serum (HyClone Laboratories Inc., cat. SH30070.03) and 2 mM L-glutamine (Invitrogen, cat. 25030081). The pooled donor HUVEC were cultured in endothelial cell growth medium 2 (PromoCell, Heidelberg, Germany, cat. C-22011) and the hMSC were cultured in mesenchymal stem cell growth medium 2 (PromoCell, cat. C-28009). For all experiments, HUVEC and hMSC were used at passages </=5, while the malignant cell lines were used at passages </=15. […]

[1] = curve of first compound, second compound 0.1 µM
[2] = curve of first compound, second compound 0.316 µM
[3] = curve of first compound, second compound 1 µM
[4] = curve of first compound, second compound 3.16 µM
[5] = curve of first compound, second compound 10 µM
[6] = second compound 0.1 µM, first compound 0.0316 µM
[7] = second compound 0.1 µM, first compound 0.1 µM
[8] = second compound 0.1 µM, first compound 0.316 µM
[9] = second compound 0.1 µM, first compound 1 µM
[10] = second compound 0.1 µM, first compound 3.16 µM
[11] = second compound 0.1 µM, first compound 10 µM
[12] = second compound 0.316 µM, first compound 0.0316 µM
[13] = second compound 0.316 µM, first compound 0.1 µM
[14] = second compound 0.316 µM, first compound 0.316 µM
[15] = second compound 0.316 µM, first compound 1 µM
[16] = second compound 0.316 µM, first compound 3.16 µM
[17] = second compound 0.316 µM, first compound 10 µM
[18] = second compound 1 µM, first compound 0.0316 µM
[19] = second compound 1 µM, first compound 0.1 µM
[20] = second compound 1 µM, first compound 0.316 µM
[21] = second compound 1 µM, first compound 1 µM
[22] = second compound 1 µM, first compound 3.16 µM
[23] = second compound 1 µM, first compound 10 µM
[24] = second compound 3.16 µM, first compound 0.0316 µM
[25] = second compound 3.16 µM, first compound 0.1 µM
[26] = second compound 3.16 µM, first compound 0.316 µM
[27] = second compound 3.16 µM, first compound 1 µM
[28] = second compound 3.16 µM, first compound 3.16 µM
[29] = second compound 3.16 µM, first compound 10 µM
[30] = second compound 10 µM, first compound 0.0316 µM
[31] = second compound 10 µM, first compound 0.1 µM
[32] = second compound 10 µM, first compound 0.316 µM
[33] = second compound 10 µM, first compound 1 µM
[34] = second compound 10 µM, first compound 3.16 µM
[35] = second compound 10 µM, first compound 10 µM
[36] = second compound 0.1 µM, first compound 0.01 µM
[37] = second compound 0.316 µM, first compound 0.01 µM
[38] = second compound 1 µM, first compound 0.01 µM
[39] = second compound 3.16 µM, first compound 0.01 µM
[40] = second compound 10 µM, first compound 0.01 µM
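Note: cells exposed to agents for seven days before viability read.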
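Throughout, for viability, T/C: 100% = DMSO vehicle control wells and lower values mean fewer viable cells.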

COc1cc(Nc2ncc3c(n2)-c2ccc(Cl)cc2C(c2c(F)cccc2OC)=NC3)ccc1C(=O)O + C=CC(=O)N1CCN(c2nc(=O)n(-c3c(C)ccnc3C(C)C)c3nc(-c4c(O)cccc4F)c(F)cc23)C(C)C1
< 5.00: pIC50 [1] | pIC50 [2] | pIC50 [3] | pIC50 [4] | pIC50 [5]
inactive: viability, T/C [6] 132% | viability, T/C [7] 118% | viability, T/C [8] 117% | viability, T/C [9] 104% | viability, T/C [10] 116% | viability, T/C [11] 88.3% | viability, T/C [12] 112% | viability, T/C [13] 110% | viability, T/C [14] 117% | viability, T/C [15] 111% | viability, T/C [16] 99% | viability, T/C [17] 97% | viability, T/C [18] 102% | viability, T/C [19] 118% | viability, T/C [20] 108% | viability, T/C [21] 115% | viability, T/C [22] 110% | viability, T/C [23] 96.5% | viability, T/C [24] 139% | viability, T/C [25] 125% | viability, T/C [26] 110% | viability, T/C [27] 105% | viability, T/C [28] 96.3% | viability, T/C [29] 89.1% | viability, T/C [30] 88.3% | viability, T/C [31] 107% | viability, T/C [32] 87.4% | viability, T/C [33] 91.6% | viability, T/C [34] 79.3% | viability, T/C [35] 86.5%

CCN1CCN(Cc2ccc(Nc3ncc(F)c(-c4cc(F)c5nc(C)n(C(C)C)c5c4)n3)nc2)CC1 + CNCc1ccccc1-c1csc(C(C)Nc2nc(C)nc3cc(OC)c(OC)cc23)c1
inactive: viability, T/C (second compound 0.1 µM, first compound 0.00316 µM) 129% | viability, T/C [36] 106% | viability, T/C [6] 87.1% | viability, T/C [7] 92.1% | viability, T/C [8] 126% | viability, T/C [9] 115% | viability, T/C (second compound 0.316 µM, first compound 0.00316 µM) 90.2% | viability, T/C [37] 111% | viability, T/C [12] 95.3% | viability, T/C [13] 107% | viability, T/C [14] 104% | viability, T/C [15] 116% | viability, T/C (second compound 1 µM, first compound 0.00316 µM) 92.2% | viability, T/C [38] 96.9% | viability, T/C [18] 76.3% | viability, T/C [19] 76.2% | viability, T/C [20] 80.7% | viability, T/C [21] 16%
active: viability, T/C (second compound 3.16 µM, first compound 0.00316 µM) 0.71% | viability, T/C [39] 0.53% | viability, T/C [24] 0.51% | viability, T/C [25] 0.41% | viability, T/C [26] 1.45% | viability, T/C [27] 0.72% | viability, T/C (second compound 10 µM, first compound 0.00316 µM) 0.81% | viability, T/C [40] 1.33% | viability, T/C [30] 0.33% | viability, T/C [31] 0.21% | viability, T/C [32] 0.22% | viability, T/C [33] 0.3%
< 6.00: pIC50 [1] | pIC50 [2]
6.27: pIC50 [3]
> 8.50: pIC50 [4] | pIC50 [5]

C=CC(=O)N1CCN(c2nc(=O)n(-c3c(C)ccnc3C(C)C)c3nc(-c4c(O)cccc4F)c(F)cc23)C(C)C1 (stereo not drawn)
< 5.00: pIC50 (compound alone, run of 07/12/2021) | pIC50 (compound alone, run of 07/19/2021) | pIC50 (compound alone, run of 07/26/2021)

CC1OCC2(CCN(c3cnc(Sc4ccnc(N)c4Cl)c(N)n3)CC2)C1N (stereo not drawn) + C=CC(=O)N1CCN(c2nc(=O)n(-c3c(C)ccnc3C(C)C)c3nc(-c4c(O)cccc4F)c(F)cc23)C(C)C1
< 5.00: pIC50 [1] | pIC50 [2] | pIC50 [3] | pIC50 [4] | pIC50 [5]
inactive: viability, T/C [6] 93.7% | viability, T/C [7] 85.8% | viability, T/C [8] 82.3% | viability, T/C [9] 83.7% | viability, T/C [10] 71.6% | viability, T/C [11] 69.9% | viability, T/C [12] 88.7% | viability, T/C [13] 103% | viability, T/C [14] 81.9% | viability, T/C [15] 85.9% | viability, T/C [16] 67.2% | viability, T/C [17] 68% | viability, T/C [18] 94.7% | viability, T/C [19] 97.7% | viability, T/C [20] 76.2% | viability, T/C [21] 87.4% | viability, T/C [22] 74.2% | viability, T/C [23] 55.8% | viability, T/C [24] 98.6% | viability, T/C [25] 96.4% | viability, T/C [26] 88.3% | viability, T/C [27] 81.8% | viability, T/C [28] 63.1% | viability, T/C [29] 58% | viability, T/C [30] 78.4% | viability, T/C [31] 82.4% | viability, T/C [32] 63.9% | viability, T/C [33] 58.3% | viability, T/C [34] 68.4% | viability, T/C [35] 71.8%

CC(=O)OC12COC1CC(O)C1(C)C(=O)C(O)C3=C(C)C(OC(=O)C(O)C(NC(=O)OC(C)(C)C)c4ccccc4)CC(O)(C(OC(=O)c4ccccc4)C21)C3(C)C (stereo not drawn) + COc1cc2nc(C)nc(NC(C)c3cc(N)cc(C(F)(F)F)c3)c2cc1OC1CCOC1
< 5.50: pIC50 [1] | pIC50 [2] | pIC50 [3] | pIC50 [4] | pIC50 [5]
inactive: viability, T/C [36] 86.8% | viability, T/C [6] 75.9% | viability, T/C [7] 83.1% | viability, T/C [8] 91.8% | viability, T/C [9] 86.1% | viability, T/C [10] 94% | viability, T/C [37] 75.1% | viability, T/C [12] 80.7% | viability, T/C [13] 72% | viability, T/C [14] 65.4% | viability, T/C [15] 78.3% | viability, T/C [16] 71.7% | viability, T/C [38] 73.4% | viability, T/C [18] 73.3% | viability, T/C [19] 82% | viability, T/C [20] 76.4% | viability, T/C [21] 92.2% | viability, T/C [22] 78.5% | viability, T/C [39] 78.3% | viability, T/C [24] 70.5% | viability, T/C [25] 58.9% | viability, T/C [26] 61.2% | viability, T/C [27] 69.3% | viability, T/C [28] 66.3% | viability, T/C [40] 64.3% | viability, T/C [30] 61.2% | viability, T/C [31] 73.3% | viability, T/C [32] 72.7% | viability, T/C [33] 78.8% | viability, T/C [34] 77.8%
